ChEMBL document CHEMBL6074640, “Novel Heteroaryl Fluoroalkenes as DGK Inhibitors for Treating Cancer, Particularly Metastatic Melanoma” (ACS Med Chem Lett, 2024)

Target: Diacylglycerol kinase alpha (Homo sapiens, UniProt P23743)
Assay: Inhibition of His-tagged recombinant human DGKalpha using DLG as substrate preincubated with substrate and ATP for 1 mins followed by compound addition and measured after 90 mins by ADP-Glo kinase assay

Sequence of Diacylglycerol kinase alpha (P23743 whole entry): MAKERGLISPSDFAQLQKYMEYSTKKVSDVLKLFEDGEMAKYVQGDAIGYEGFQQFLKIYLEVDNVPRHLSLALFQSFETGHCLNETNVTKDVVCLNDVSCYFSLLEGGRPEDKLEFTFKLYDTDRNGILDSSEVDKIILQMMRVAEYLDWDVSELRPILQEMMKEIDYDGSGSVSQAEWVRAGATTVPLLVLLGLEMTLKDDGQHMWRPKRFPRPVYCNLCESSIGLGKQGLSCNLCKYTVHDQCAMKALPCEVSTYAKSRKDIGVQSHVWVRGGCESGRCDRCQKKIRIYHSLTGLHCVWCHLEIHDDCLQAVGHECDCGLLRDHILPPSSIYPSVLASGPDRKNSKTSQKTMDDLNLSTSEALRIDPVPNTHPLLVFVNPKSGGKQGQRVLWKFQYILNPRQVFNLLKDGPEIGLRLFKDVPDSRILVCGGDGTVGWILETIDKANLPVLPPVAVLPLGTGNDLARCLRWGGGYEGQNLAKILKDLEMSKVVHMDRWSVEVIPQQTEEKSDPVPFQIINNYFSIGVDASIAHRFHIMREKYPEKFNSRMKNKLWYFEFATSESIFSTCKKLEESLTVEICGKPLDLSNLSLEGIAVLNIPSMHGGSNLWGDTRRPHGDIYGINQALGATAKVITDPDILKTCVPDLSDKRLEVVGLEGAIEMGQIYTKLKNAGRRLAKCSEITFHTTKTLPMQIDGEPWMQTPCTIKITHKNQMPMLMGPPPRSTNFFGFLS

IC50	Structure (SMILES)
≤ 20 nM	CCN1CCC2(CCCN(c3c(/C=C(\F)c4nccc(N5CC(F)(F)C5)n4)ccc(Oc4ccccc4F)c3C(F)(F)F)C2)CC1
≤ 20 nM	F/C(=C\c1ccc(Oc2ccccc2F)c(C(F)(F)F)c1N1CCCC2(CCN(CC3CC3)CC2)C1)c1nccc(-c2cnsc2)n1
≤ 20 nM	COc1cc(F)ccc1Oc1ccc(/C=C(\F)c2nncc(N3CCC(F)(F)C3)n2)c(N2CCC[C@@H](CN)C2)c1Cl
≤ 20 nM	CCN1CCC2(CC1)CN(c1c(/C=C(\F)c3nccc(-c4ccnnc4)n3)ccc(Oc3ccccc3)c1C(F)(F)F)CCO2
≤ 20 nM	NC[C@H]1CCCN1c1c(/C=C(\F)c2nccc(-c3ccnnc3)n2)ccc(Oc2ccccc2)c1Cl
